Measured values taken from patent publication US7115619B2, “N8, N13 -disubstituted quino[4,3,2-kl]acridinium salts as therapeutic agents” (Cancer Research Technology Limited, priority 2000, dated 2006).
Where a name gives a salt, the structure may show the parent alone.

How the values were obtained:
[1] = Growth inhibition, sulforhodamine B (SRB) assay, CH1; assay type: cell-based; conditions: human, CH1 ovarian carcinoma cells, 96 hr incubation, read-out: Cytotoxicity IC50 CH1
Experimental: (§1) Growth inhibition was measured in the following cells lines using the sulforhodamine B (SRB) assay: • A2780: human ovarian carcinoma cell line. • CH1: human ovarian carcinoma cell line. • SKOV-3: human ovarian carcinoma cell line. • A431: human vulval carcinoma cells (short telomeres). • GM847: carcinoma cell line immortalised by ALT pathway.
(§2) Briefly, between 3000 and 6000 cells were seeded into the wells of 96-well microtiter plates and allowed to attach overnight. Test compounds (salts) were dissolved at 500 μM in water and immediately added to wells in quadruplicate at final concentrations of 0.05, 0.25, 1, 5 and 25 μM. Following an incubation period of 96 hr, remaining cells were fixed with ice-cold 10% w/v trichloroacetic acid (30 min) and stained with 0.4% SRB in 1% v/v acetic acid (15 min). Mean absorbance at 540 nm for each drug concentration was expressed as a percentage of the control untreated well absorbance, and IC50 values (concentration required to inhibit cell growth by 50%) were determined for each agent.

[2] = molecular target: T1, telomerase (extracts from A2780 human ovarian carcinoma cells) (Homo sapiens, UniProt O14746); assay: Modified telomeric repeat amplification protocol (TRAP) assay, cell-free; assay type: biochemical; conditions: A2780 cell extract, agent up to 50 μM, 20 min, read-out: telIC50
T1 construct: extracts from exponentially growing A2780 human ovarian carcinoma cells
T1 sequence (O14746 whole entry): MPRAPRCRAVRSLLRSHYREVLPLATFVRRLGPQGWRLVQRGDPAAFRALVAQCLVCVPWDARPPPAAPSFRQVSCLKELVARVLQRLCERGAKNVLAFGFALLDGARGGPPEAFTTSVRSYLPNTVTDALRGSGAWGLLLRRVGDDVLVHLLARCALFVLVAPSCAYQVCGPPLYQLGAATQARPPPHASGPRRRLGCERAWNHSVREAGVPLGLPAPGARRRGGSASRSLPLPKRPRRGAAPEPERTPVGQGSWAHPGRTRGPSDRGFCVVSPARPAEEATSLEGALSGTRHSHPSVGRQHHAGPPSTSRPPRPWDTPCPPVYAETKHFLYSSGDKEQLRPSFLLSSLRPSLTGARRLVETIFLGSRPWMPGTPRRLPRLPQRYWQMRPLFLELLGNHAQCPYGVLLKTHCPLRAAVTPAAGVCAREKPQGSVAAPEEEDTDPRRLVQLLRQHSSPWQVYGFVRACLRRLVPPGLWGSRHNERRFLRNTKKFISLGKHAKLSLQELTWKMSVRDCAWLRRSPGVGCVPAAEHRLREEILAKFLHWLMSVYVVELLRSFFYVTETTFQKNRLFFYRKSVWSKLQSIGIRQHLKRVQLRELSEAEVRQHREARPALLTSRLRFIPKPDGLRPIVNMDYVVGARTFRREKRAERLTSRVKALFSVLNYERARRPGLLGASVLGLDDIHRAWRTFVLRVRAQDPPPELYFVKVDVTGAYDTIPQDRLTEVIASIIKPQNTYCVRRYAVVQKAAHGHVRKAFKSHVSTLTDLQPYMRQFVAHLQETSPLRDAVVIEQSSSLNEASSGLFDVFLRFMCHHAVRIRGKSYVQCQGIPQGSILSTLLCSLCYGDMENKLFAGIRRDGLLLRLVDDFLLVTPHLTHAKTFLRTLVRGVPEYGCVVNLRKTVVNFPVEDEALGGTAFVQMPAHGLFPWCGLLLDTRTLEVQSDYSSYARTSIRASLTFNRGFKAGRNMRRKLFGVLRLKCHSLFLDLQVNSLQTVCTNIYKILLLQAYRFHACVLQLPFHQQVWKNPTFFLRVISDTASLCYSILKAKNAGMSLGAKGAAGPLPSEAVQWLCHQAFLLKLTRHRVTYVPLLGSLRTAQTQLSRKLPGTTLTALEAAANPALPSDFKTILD
Experimental: The ability of compounds to inhibit telomerase in a cell-free assay was assessed with a modified TRAP assay using extracts from exponentially growing A2780 human ovarian carcinoma cells. The TRAP assay was performed in 2 steps: (a) telomerase-mediated extension of the forward primer (TS: 5′-AATCCGTCGAGCAGAGTT, Oswel Ltd., Southampton, UK) contained in a 40 μL reaction mix comprising TRAP buffer (20 mM Tris-HCl (pH 8.3), 68 mM KCl, 1.5 mM MgCl2, 1 mM EGTA, 0.05% v/v Tween 20), 0.05 μg bovine serum albumin, 50 μM of each deoxynucleotide triphosphate, 0.1 μg TS primer, and 3 μCi of [α-^32P]dCTP (Amersham plc, UK). Protein (0.04 μg) was then incubated with the reaction mix±agent (acid addition and quaternary dimethiodide salts) at final concentrations of up to 50 μM for 20 min at […]. A lysis buffer (no protein) control, heat-inactivated protein control, and 50% protein (0.02 μg) control were included in each assay; and (b) while heating at […]. in a PCR block of a thermal cycler (Hybaid, UK) for 5 min to inactivate telomerase activity, 0.1 μg of reverse CX primer (3′-[…]-5′) and 2 Units of Taq DNA polymerase (“red hot”, Advanced Biotechnologies) were added. A 3-step PCR was then performed: 94° C. for 30 s, 50° C. for 30 s, and […]. for 1 min for 31 cycles. Telomerase-extended PCR products in the presence or absence of compounds were then determined either by electrophoretic separation using 8% w/w acrylamide denaturing gels and analysis by phosphorimaging or autoradiography, or by harvesting on Whatman filters (25 mm glass microfibre) and analysis by liquid scintillation counting.

[3] = Growth inhibition, sulforhodamine B (SRB) assay, SKOV-3; assay type: cell-based; conditions: human, SKOV-3 ovarian carcinoma cells, 96 hr incubation, read-out: Cytotoxicity IC50 SKOV-3
Experimental: as §1, §2

[4] = Growth inhibition, sulforhodamine B (SRB) assay, A2780; assay type: cell-based; conditions: human, A2780 ovarian carcinoma cells, 96 hr incubation, read-out: Cytotoxicity IC50 A2780
Experimental: as §1, §2

[5] = Growth inhibition, sulforhodamine B (SRB) assay, A431; assay type: cell-based; conditions: human, A431 vulval carcinoma cells (short telomeres), 96 hr incubation, read-out: Cytotoxicity IC50 A431
Experimental: as §2, with “Growth inhibition was measured in the following cells lines using the sulforhodamine B (SRB) assay: • A2780: human ovarian carcinoma cell line. • CH1: human ovarian carcinoma cell line. • SKOV-3: human ovarian carcinoma cell line. • A431: human vulval carcinoma cells (short telomeres). • GM847: carcinoma cell line immortalised by ALT pathway. Briefly,” for “Briefly,”

[6] = Growth inhibition, sulforhodamine B (SRB) assay, GM847; assay type: cell-based; conditions: human, GM847 cells (immortalised by ALT pathway), 96 hr incubation, read-out: Cytotoxicity IC50 GM847
Experimental: as §2, with “Growth inhibition was measured in the following cells lines using the sulforhodamine B (SRB) assay: • A2780: human ovarian carcinoma cell line. • CH1: human ovarian carcinoma cell line. • SKOV-3: human ovarian carcinoma cell line. • A431: human vulval carcinoma cells (short telomeres). • GM847: carcinoma cell line immortalised by ALT pathway. Briefly,” for “Briefly,”

Row | SMILES | melting point [°C] | IC50 at 96 h [1] [nM] | IC50 [2] [nM] | IC50 at 96 h [3] [nM] | IC50 at 96 h [4] [nM] | IC50 at 96 h [5] [nM] | IC50 at 96 h [6] [nM]
1 | CN1c2ccccc2-c2c3c1cccc3c1cc(Cl)ccc1[n+]2C (as salt: iodide) [RHPS06, 3-Chloro-8,13-dimethyl-8H-quino[4,3,2-kl]acridinium iodide] | 225 to 227 |  |  |  |  |  | 
2 | COC(=O)/C=C/c1ccc2c(c1)c1cccc3c1c([n+]2C)-c1ccccc1N3C (as salt: iodide) [RHPS15, (E)-3-(8,13-Dimethyl-8H-quino[4,3,2-kl]acridinium-3-yl)-acrylic acid methyl ester iodide] | 200 to 202 |  |  |  |  |  | 
3 | Cc1cc2c3c([n+](C)c4ccc(Cl)cc4c3c1)-c1cc(Cl)ccc1N2C (as salt: sulfate) [RHPS02, 3,11-Dichloro-6,8,13-trimethyl-8H-quino[4,3,2-kl]acridinium methylsulfate] | 250 to 252 |  |  |  |  |  | 
4 | Cc1cc2c3c([n+](C)c4ccccc4c3c1)-c1ccccc1N2C (as salt: sulphate) [RHPS01, 6,8,13-Trimethyl-8H-quino[4,3,2-kl]acridinium methyl sulphate] | 190 to 192 |  |  |  |  |  | 
5 | Cc1ccc2c(c1)-c1c3c(cc(C)cc3c3cc(C)ccc3[n+]1C)N2C (as salt: sulphate) [RHPS03, 3,6,8,11,13-Pentamethyl-8H-quino[4,3,2-kl]acridinium methyl sulphate] | 240 to 242 |  |  |  |  |  | 
6 | Cc1cc2c3c([n+](C)c4ccccc4c3c1)-c1ccccc1N2C [RHPS01, 6,8,13-Trimethyl-8H-quino[4,3,2-kl]acridinium methyl sulphate] |  | 370 | 740 | 3600 | 900 |  | 
7 | Cc1cc2c3c([n+](C)c4ccc(Cl)cc4c3c1)-c1cc(Cl)ccc1N2C [RHPS02, 3,11-Dichloro-6,8,13-trimethyl-8H-quino[4,3,2-kl]acridinium methylsulfate] |  | 1400 | 240 | 9300 | 1300 |  | 
8 | Cc1ccc2c(c1)-c1c3c(cc(C)cc3c3cc(C)ccc3[n+]1C)N2C [RHPS03, 3,6,8,11,13-Pentamethyl-8H-quino[4,3,2-kl]acridinium methyl sulphate] |  | 290 | 180 | 750 | 330 |  | 
9 | Cc1cc2c3c([n+](C)c4ccc(F)cc4c3c1)-c1cc(F)ccc1N2C [RHPS04, 3,11-Difluoro-6,8,13-trimethyl-8H-quino[4,3,2-kl]acridinium methyl sulphate] |  | 500 | 310 | 23000 | 1100 |  | 
10 | CN1c2ccccc2-c2c3c1cccc3c1ccccc1[n+]2C [RHPS05, 8,13-Dimethyl-8H-quino[4,3,2-kl]acridinium iodide] |  | 1100 | 1550 | 18000 | 1600 |  | 
11 | CN1c2ccccc2-c2c3c1cccc3c1cc(Cl)ccc1[n+]2C [RHPS06, 3-Chloro-8,13-dimethyl-8H-quino[4,3,2-kl]acridinium iodide] |  | 500 | 260 | 12500 | 1100 |  | 
12 | CN1c2cc(Cl)ccc2-c2c3c1cccc3c1cc(Cl)ccc1[n+]2C [RHPS07, 3,10-Dichloro-8,13-dimethyl-8H-quino[4,3,2-kl]acridinium iodide] |  | 3800 | 940 | > 25000 | 14500 |  | 
13 | COc1cc2c3c([n+](C)c4ccccc4c3c1)-c1ccccc1N2C [RHPS08, 8,13-Dimethyl-6-methoxy-8H-quino[4,3,2-kl]acridinium iodide] |  | 130 | 470 | 3600 | 620 |  | 
14 | COC(=O)CCc1ccc2c(c1)c1cccc3c1c([n+]2C)-c1ccccc1N3C [RHPS09, 3-(8,13-Dimethyl-8H-quino[4,3,2-kl]acridinium-3-yl)-propionic acid methyl ester iodide] |  | 11500 | 3020 | > 25000 | > 25000 |  | 
15 | COc1cc2c3c([n+](C)c4ccc(Cl)cc4c3c1)-c1ccccc1N2C [RHPS10, 3-Chloro-8,13-dimethyl-6-methoxy-8H-quino[4,3,2-kl]acridinium iodide] |  | 1100 | 240 | 6300 |  | 3200 | 800
16 | CC(=O)Oc1cc2c3c([n+](C)c4ccccc4c3c1)-c1ccccc1N2C [RHPS11, 6-Acetoxy-8,13-dimethyl-8H-quino[4,3,2-kl]acridinium iodide] |  | 1600 | 1700 | 3500 |  | 1700 | 17700
17 | COc1cc2c3c([n+](C)c4ccccc4c3c1)-c1ccc(Cl)cc1N2C [RHPS12, 10-Chloro-8,13-dimethyl-6-methoxy-8H-quino[4,3,2-kl]acridinium iodide] |  | 300 | 280 | 10000 |  | 1000 | 400
18 | COC(=O)Oc1cc2c3c([n+](C)c4ccccc4c3c1)-c1ccccc1N2C [RHPS13, 6-Methoxycarbonyloxy-8,13-dimethyl-8H-quino[4,3,2-kl]acridinium iodide] |  | 200 | 570 | 1500 |  | 400 | 500
19 | COC(=O)/C=C/c1ccc2c(c1)c1cccc3c1c([n+]2C)-c1ccccc1N3C [RHPS15, (E)-3-(8,13-Dimethyl-8H-quino[4,3,2-kl]acridinium-3-yl)-acrylic acid methyl ester iodide] |  | 2200 | 190 | 19000 |  | 3200 | 4500
20 | CN1c2ccccc2-c2c3c1cccc3c1cc(/C=C/C(=O)N3CCOCC3)ccc1[n+]2C [RHPS16, 8,13-Dimethyl-(E)-3-(3-morpholin-4-yl-3-oxo-propenyl)-8H-quino[4,3,2-kl]acridinium iodide] |  | 17800 | 370 | > 25000 |  | 12500 | > 25000
